Assay results: US20250241878A1, “TYROSINE AND RESVERATROL DERIVATIVES AS NOVEL MODULATORS OF CELLULAR SERINE ADP-RIBOSYLATION” (UNIVERSITY OF SOUTH CAROLINA, priority 2022, published 2025)

Experiments:
PARP1 = assay: Auto-PARylation of PARP1 immunoblot; format: cell-based, rat
global protein synthesis = assay: Puromycin incorporation assay; format: cell-based, rat; conditions: compound alone
Protocol: Cultured neurons (DIV 9-10) were washed once with cold 1×PBS and lysed in cell lysis buffer (20 mM Tris-HCl (pH 7.5), 150 mM NaCl, 1 mM Na2EDTA, 1 mM EGTA, 1% Triton™, 2.5 mM sodium pyrophosphate, 1 mM beta-glycerophosphate, 1 mM Na3VO4, 1 μg/ml leupeptin supplemented with protease inhibitor). The lysates were centrifuged at 10,000 RPM for 15 mins at 4° C. to separate the chromatin-bound and soluble fractions. Lysates were quantified using Bio-Rad™ Protein Assay and equal amounts of protein were loaded onto a 4 to 12% gradient gel (Invitrogen™ NuPAGE™). Protein was transferred from the gel to 0.2 μm NC membranes at 25 V for 10 mins using transfer stacks (iBlot™ 2-Invitrogen™) and blocked with 5% non-fat milk in TBST (10 mM Tris-HCl pH 8.0, 150 mM NaCl, 0.01% Tween-20) for 1 hr before application of primary antibodies. Primary and secondary antibodies were incubated overnight at 4° C. and for 1 hr at room temperature, respectively. Immobilon® ECL Ultra Western HRP Substrate (WBULS0500, Millipore™) and a luminescent image analyzer (ChemiDoc™ Imaging System, Bio-Rad™) were used to detect proteins. Quantification of western blots was done using ImageJ (Version 1.53c).

cortical neurons [1] = assay: DNA fiber analysis (CIdU incorporation); format: cell-based, rat
Protocol: Molecular combing was performed using the FiberComb® Molecular Combing System (Genomic Vision) with a constant stretching factor of 2 kb/μm using […] coverslips (20×20 mm; Genomic Vision). […] The coverslips were then washed with PBS, followed by serial ethanol dehydration (70%-100%). Following two 1×PBS washes, the coverslips were blocked in 3% BSA/1×PBS for 30 min followed by incubation with α-BrdU (for CIdU) (BD [347,580]) (1:100) and ssDNA antibody (MilliporeTM MAB3034) (1:100), for 2 hr at 37° C. After three PBST washes, secondary antibody incubation was done using α-mouse Alexa Fluor® 594 and α-rat Alexa Fluor® 488 (1:500) for 1 hr at 37° C. Coverslips were washed three times with 1×PBST, dehydrated and mounted on slides with mounting media. The stained DNA fibers were visualized using a fluorescence microscope (EVOS FL, Thermo FisherTM Scientific). Analysis was performed in ImageJ by counting the total ssDNA and the CIdU labeled fibers. For each treatment condition, 300 fibers were counted, and the average ratio of CIdU incorporation for ssDNA fibers per condition was used for final representation.

AcK56-H3 = conditions: humans, 500 mg/day dosing; cited from earlier work
monosomes = assay: Monosome formation in cortical neurons; format: cell-based, rat; conditions: compound alone
[2] = system: association of raptor with Rab7a; assay: Raptor / Rab7a immunoprecipitation; format: cell-based, rat
Description: FIG. 19C presents cis-RSV-mediated recruitment of raptor to Rab7a-coated late endosomes.

cortical neurons [3] = assay: Neurite degeneration (MAP2 staining); format: cell-based, rat; conditions: agent alone
Protocol: The neurite degeneration index was calculated. Samples were imaged using ImageXpress® Micro 4 at a magnification of 10× to capture the entire field of interest. The samples analyzed for neurite degeneration were stained using the standard immunofluorescence procedure with MAP2 (Alexa Fluor® 647) for neurites and DAPI staining for the nucleus. Neurite degeneration was quantified using 5-6 regions of interest of equal sizes from each treatment condition. The analysis of neurite degeneration was done using ImageJ. The fluorescent images for MAP2 staining were binarized, so that pixel intensity of regions corresponding to neurite staining was converted to black, and all other regions were converted to white. Healthy intact neurites show a continuous tract, whereas degenerated axons have a particulate structure due to fragmentation or beading. To detect degenerated neurites, the particle analyzer module of ImageJ was used. The percentage of the area of the small fragments or particles (size=3-10 μm^2) to the intact neurites (size >25 μm^2) with information derived from the binary images was calculated. A degeneration index (DI) was calculated as the fragmented neurite area ratio over the intact neurite area.

For Oc1ccc(/C=C/c2cc(O)cc(O)c2)cc1 [trans-RSV, trans-resveratrol], the “auto-PARylation of PARP1” value (PARP1; higher concentrations of trans-RSV (≥25 mM)) was “inhibit the auto-PARylation of PARP1”, the “auto-PARylation of PARP1” value (PARP1; low concentration of trans-RSV, converted to cis-RSV in solution) was “stimulates the auto-PARylation of PARP1” and the “global protein synthesis (puromycin incorporation)” value (global protein synthesis) was “inhibited global protein synthesis”. For the same molecule, the “incorporation of nucleoside analog CIdU into DNA fibers” value (cortical neurons [1]; compound alone) was “prevented the incorporation of the nucleoside analog CIdU into DNA fibers” and the “acetylation of H3 at lysine 56 (AcK56-H3)” value (AcK56-H3) was “inhibited the acetylation of H3 at lysine 56”.

In the case of Oc1ccc(/C=C\c2cc(O)cc(O)c2)cc1 [cis-RSV, cis-resveratrol], the “reduction of CIdU incorporation compared to control” value (cortical neurons [1]; after cis-RSV treatment) is reported as 15-20%, the monosome formation (monosomes) is reported as “stimulate the formation of monosomes” and the “association of raptor with Rab7a” value [2] is reported as “increases the association of raptor with Rab7a”.

For N[C@@H](Cc1ccc(O)cc1)C(=O)O [tyrosine, L-tyrosine], the neurite degeneration (cortical neurons [3]) was “did not induce neurite degeneration”.
